Measurements: patent publication US6486161B1, “Use of rifamycin derivative for treating mastitis in a domestic animal” (priority 2000, dated 2002)
Values after ≈ are worked out from the molar mass of the structure shown. Like-named read-outs stand apart in the source and are kept apart here.

Key:
[1] = test system: rifampin-resistant S. aureus B93-728M; assay: microbe, parasite or virus in culture; assay type: cell-based, Staphylococcus aureus; conditions: strain B93-728M
Procedure: (§1) The antibacterial effect of the rifamycin derivative (1) against rifampin-resistant Staphylococcus aureus bacterial strains was determined. The tested bacterial strains were isolated from a variety of animal diseases as well as laboratory strains.
(§2) All bacteria were maintained on 3 mm glass beads immersed in trypticase soy broth (BBL Microbiology Systems, Cockeysville, Md.) with 10% glycerol and held at −70° C. until revived. Prior to testing, the organisms were subcultured on tryptose blood agar base (Difco, Detroit, Mich.) supplemented with 5% sheep blood for 24 hours at 35° C.
(§3) The compounds were dissolved in 95% ethanol and diluted to 10% ethanol in sterile, distilled water except for the compounds used in the in vivo testing where saline was used to dilute the original ethanol/drug suspension. Further dilutions were conducted in water or saline.
(§4) MICs were determined using the microbroth dilution method. In addition to the test organisms, the following quality control strain also was tested: Staphylococcus aureus ATCC 29213. The results are shown in Table 5, wherein R is the alkyl group R in the rifamycin derivative (1).

[2] = test system: rifampin-resistant S. aureus 30862; assay: microbe, parasite or virus in culture; assay type: cell-based, Staphylococcus aureus; conditions: strain 30862
Procedure: as §1, §2, §3, §4

[3] = test system: rifampin-resistant S. aureus 30867; assay: microbe, parasite or virus in culture; assay type: cell-based, Staphylococcus aureus; conditions: strain 30867
Procedure: as §1, §2, §3, §4

[4] = test system: rifampin-resistant S. aureus 31068; assay: microbe, parasite or virus in culture; assay type: cell-based, Staphylococcus aureus; conditions: strain 31068
Procedure: as §1, §2, §3, §4

[5] = test system: rifampin-resistant S. aureus 30860; assay: microbe, parasite or virus in culture; assay type: cell-based, Staphylococcus aureus; conditions: strain 30860
Procedure: as §1, §2, §3, §4

[6] = test system: rifampin-resistant S. aureus 30888; assay: microbe, parasite or virus in culture; assay type: cell-based, Staphylococcus aureus; conditions: strain 30888
Procedure: as §1, §2, §3, §4

[7] = test system: rifampin-resistant S. aureus 30858; assay: microbe, parasite or virus in culture; assay type: cell-based, Staphylococcus aureus; conditions: strain 30858
Procedure: as §1, §2, §3, §4

[8] = test system: rifampin-resistant S. aureus 30865; assay: microbe, parasite or virus in culture; assay type: cell-based, Staphylococcus aureus; conditions: strain 30865
Procedure: as §1, §2, §3, §4

[9] = test system: rifampin-resistant S. aureus 30859; assay: microbe, parasite or virus in culture; assay type: cell-based, Staphylococcus aureus; conditions: strain 30859
Procedure: as §1, §2, §3, §4

[10] = test system: rifampin-resistant S. aureus 12637; assay: microbe, parasite or virus in culture; assay type: cell-based, Staphylococcus aureus; conditions: strain 12637
Procedure: as §1, §2, §3, §4

[11] = test system: rifampin-resistant S. aureus 30863; assay: microbe, parasite or virus in culture; assay type: cell-based, Staphylococcus aureus; conditions: strain 30863
Procedure: as §1, §2, §3, §4

[12] = test system: rifampin-resistant S. aureus 30871; assay: microbe, parasite or virus in culture; assay type: cell-based, Staphylococcus aureus; conditions: strain 30871
Procedure: as §1, §2, §3, §4

[13] = test system: rifampin-resistant S. aureus 30869; assay: microbe, parasite or virus in culture; assay type: cell-based, Staphylococcus aureus; conditions: strain 30869
Procedure: as §1, §2, §3, §4

S. aureus 6097 = assay: Mutation frequency for resistance, strain 6097; assay type: cell-based, Staphylococcus aureus
Procedure: The mutation frequency for development of resistance to the rifamycin derivative (1) as compared to rifampin was determined with selected Staphylococcus aureus strains.
Four S. aureus strains were used: S. aureus 30857, a rifampin-resistant isolate: S. aureus 6097, a strain used in the mouse mastitis test and originally from a case of gangrenous bovine mastitis; S. aureus B83-1, derived from the Newbould 305 strain; and S. aureus ATCC 29213, the in vitro control stain recommended by NCCLS.
as §2, with “S. aureus strains” for “bacteria”, “strains” for “organisms”
These compounds were dissolved in 95% ethanol, a solution which was then diluted to 10% ethanol with sterile distilled water. Further dilutions were conducted in water.
The mutation frequency for development of resistance to the compounds tested was determined by the following method. A single colony of each strain was removed from the surface of a blood agar plate with a cotton swab, suspended in 5 ml of Mueller-Hinton broth (BBL), and streaked on the entire surface of five Mueller-Hinton agar plates. The plates were incubated overnight under aerobic conditions at 35° C., growth was removed from the agar using a sterile cotton swab, and the bacteria were suspended in 10 ml physiological saline. This bacterial suspension was the inoculum for the mutation frequency determinations. Standard plate counts were performed on the inoculum by performing serial dilutions and plating a 0.1 ml aliquot on the surface of ten Mueller-Hinton agar plates at each concentration. The plates were incubated for 18-24 hours at 35° C. under aerobic conditions and colony counts performed. Mean bacterial counts were calculated for the inoculum with each strain.
A 0.1 ml aliquot of the inoculum was then used to inoculate the entire surface of ten plates each containing 1, 10, and 100 μg/ml of the test antimicrobial agents. The plates were incubated for 18-24 hours at 35° C. under aerobic conditions and colony counts performed. Mean bacterial counts were calculated for each antimicrobial concentration and the mutation frequency calculated by dividing the number of colonies which grew on the drug containing media by the inoculum size.

Oral toxicity in mice = assay type: in vivo; conditions: orally administered to mice, 1,000 mg/kg
[14] = Staphylococcus aureus, read-out: MIC

COC1/C=C/OC2(C)Oc3c(C)c(O)c4c(=O)c(c5oc6cc(N7CCN(C)CC7)cc(O)c6nc-5c4c3C2=O)NC(=O)/C(C)=C\C=C\C(C)C(O)C(C)C(O)C(C)C(OC(C)=O)C1C (stereo not drawn) [R = methyl]
MIC [1]: 0.5 µg/mL (≈ 0.556 µM)
MIC [2]: 2.0 µg/mL (≈ 2.22 µM)
MIC [3]: 0.5 µg/mL (≈ 0.556 µM)
MIC [4]: 2.0 µg/mL (≈ 2.22 µM)
MIC [5]: 4.0 µg/mL (≈ 4.45 µM)
MIC [6]: 0.13 µg/mL (≈ 0.145 µM)
MIC [7]: 2.0 µg/mL (≈ 2.22 µM)
MIC [8]: 0.06 µg/mL (≈ 0.0667 µM)
MIC [9]: 0.25 µg/mL (≈ 0.278 µM)
MIC [10]: 0.25 µg/mL (≈ 0.278 µM)
MIC [11]: 0.25 µg/mL (≈ 0.278 µM)
MIC [12]: 2.0 µg/mL (≈ 2.22 µM)
MIC [13]: 0.25 µg/mL (≈ 0.278 µM)
Mutation frequency (S. aureus 6097; 1 μg/ml): 4.0 × 10^−8
Mutation frequency (S. aureus 6097; 10 μg/ml): <1.8 × 10^−10
Mutation frequency (S. aureus 6097; 100 μg/ml): <1.8 × 10^−10
toxicity (Oral toxicity in mice): did not show any toxicity

CO[C@H]1/C=C/O[C@@]2(C)Oc3c(C)c(O)c4c(O)c(c(/C=N/N5CCN(C)CC5)c(O)c4c3C2=O)NC(=O)/C(C)=C\C=C\[C@H](C)[C@H](O)[C@@H](C)[C@@H](O)[C@@H](C)[C@H](OC(C)=O)[C@@H]1C [Rifampin, reference compound]
MIC [1, 14]: 2 µg/mL (≈ 2.43 µM)
MIC [2, 14]: > 32 µg/mL
MIC [3, 14]: 32 µg/mL (≈ 38.9 µM)
MIC [4, 14]: 4 µg/mL (≈ 4.86 µM)
MIC [5, 14]: > 32 µg/mL
MIC [6, 14]: > 32 µg/mL
MIC [7, 14]: 8 µg/mL (≈ 9.72 µM)
MIC [8, 14]: 32 µg/mL (≈ 38.9 µM)
MIC [9, 14]: > 32 µg/mL
MIC [10, 14]: > 32 µg/mL
MIC [11, 14]: > 32 µg/mL
MIC [12, 14]: > 32 µg/mL
MIC [13, 14]: 4 µg/mL (≈ 4.86 µM)
Mutation frequency (S. aureus 6097; 1 μg/ml): 1.2 × 10^−8
Mutation frequency (S. aureus 6097; 10 μg/ml): 2.0 × 10^−8
Mutation frequency (S. aureus 6097; 100 μg/ml): 4.9 × 10^−9
